Test results published in article PMC7756656, “Discovery of Homobivalent Bitopic Ligands of the Cannabinoid CB2 Receptor” (Chemistry (Weinheim an Der Bergstrasse, Germany), 2020).

Columns and labels:
[1] = target: T1, CB1R (hCB1R) (Homo sapiens, UniProt P21554); assay: biochemical; assay type: HEK-293T membranes; parameters: [3H]CP-55,940 competition radioligand binding, membrane filtration, scintillation counting
T1 construct: gene CNR1; expressed in HEK-293T cells; membrane fractions
Text: (§1) In vitro binding affinities of the alleged bitopic ligands 18–29 (Table 1) and the corresponding monovalent counterparts 6–17 (Table S1) were obtained from [^3H]CP‐55,940 competition‐binding assays using membrane fractions of the human CB1R and CB2R, respectively, expressed in HEK‐293T cells. […] Addition of the second pharmacophore makes bivalent ligands capable of binding CB2R in a selective manner. Optimal spacer length for N1‐ and N2‐ethyl derivatives is from 10 (n=8) to 14 (n=12) [compound left out] units. S23 Aldrich, Madrid, Spain). Membranes were resuspended in the corresponding buffer and were incubated (90 min at 30 °C) with the radioligand and each compound at a high concentration (40 μM) with the purpose of determining the % of radioligand displacement. […] Nonspecific binding was determined with 10 μM [compound left out] (Sigma-Aldrich, Madrid, Spain) and total radioligand binding by incubation with the membranes in the absence of any compound. Filtration was performed by a Harvester filtermate (PerkinElmer, Boston, MA, USA) with Filtermat A GF/C filters pretreated with polyethylenimine 0.05%. After filtering, the filter was washed nine times with binding buffer and dried, and a melt-on scintillation sheet (MeltilexTM A, PerkinElmer, Boston, MA, USA) was melted onto it. Then, radioactivity was quantified by a [compound left out] scintillation counter (Wallac MicroBeta Trilux, PerkinElmer, Boston, MA, USA). Competition binding data were analyzed by using GraphPad Prism, version 5.02 (GraphPad Software Inc., San Diego, CA, USA), and Ki values are expressed as the mean ± SEM of at least three experiments performed in triplicate for each. 2.2- cAMP determination assays. Determination of cAMP levels in HEK293 cells stably expressing the CB2R was performed using the Lance-Ultra cAMP kit (PerkinElmer) according to the manufacturer’s instructions. Briefly, HEK293 cells expressing the CB2R were dispensed in white 384-well microplates at a density of 5.000 cells per well. Finally, cells were incubated for 60 min at room temperature with HTRF assay reagents, and fluorescence at 665 nm was analyzed on a PHERAstar Flagship microplate reader equipped with an HTRF optical module (BMG Labtech). Data analysis was made based on the fluorescence ratio emitted by the labeled cAMP probe (665 nm) over the light emitted by the europium cryptate-labeled anti-cAMP antibody (620 nm). A standard curve was used to calculate cAMP concentration. Forskolin stimulated cAMP levels were normalized to 100%. Data was analyzed by using […]

[2] = target: T2, CB2R (hCB2R) (Homo sapiens, UniProt P34972); assay: biochemical; assay type: HEK-293T membranes; parameters: [3H]CP-55,940 competition radioligand binding, membrane filtration, scintillation counting
T2 construct: gene CNR2; expressed in HEK-293T cells
T2 sequence (P34972 whole entry): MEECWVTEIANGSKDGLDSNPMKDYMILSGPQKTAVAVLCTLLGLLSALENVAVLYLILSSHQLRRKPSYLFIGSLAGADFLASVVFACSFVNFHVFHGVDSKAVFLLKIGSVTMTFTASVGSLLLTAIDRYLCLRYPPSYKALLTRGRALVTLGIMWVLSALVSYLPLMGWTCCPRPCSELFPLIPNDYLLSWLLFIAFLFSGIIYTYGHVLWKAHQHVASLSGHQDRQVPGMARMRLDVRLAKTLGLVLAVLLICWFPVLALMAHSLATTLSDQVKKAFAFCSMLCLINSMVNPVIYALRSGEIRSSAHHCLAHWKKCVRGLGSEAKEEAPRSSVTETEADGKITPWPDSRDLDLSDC
Text: as §1

[3] = target: T1, CB1R (hCB1R); assay: biochemical; assay type: HEK-293T membranes; parameters: [3H]CP-55,940 competition radioligand binding, membrane filtration, scintillation counting; remark: listed apart in the source
Text: as §1, with “(n=12) methylene” for “(n=12) [compound left out]”, “μM WIN55212-2” for “μM [compound left out]”, “a liquid” for “a [compound left out]”

[4] = target: T2, CB2R (hCB2R); assay: biochemical; assay type: HEK-293T membranes; parameters: [3H]CP-55,940 competition radioligand binding, membrane filtration, scintillation counting; remark: listed apart in the source
Text: as §1, with “(n=12) methylene” for “(n=12) [compound left out]”, “μM WIN55212-2” for “μM [compound left out]”, “a liquid” for “a [compound left out]”

[5] = target: T2, CB2R (hCB2R); assay: [3H]CP-55, […] competition binding, HEK-293T membranes; details: read-out: CB2R Ki [μM]^[b]
[6] = target: T1, CB1R (hCB1R); assay: as above; details: read-out: CB1R Ki [μM]^[b]
[7] = target: T2, CB2R (hCB2R); assay: inhibition of forskolin-induced cAMP, HEK-293T cells; assay type: cell-based; details: read-out: Wild type / pEC50 (converted)

T1 sequence (P21554 whole entry): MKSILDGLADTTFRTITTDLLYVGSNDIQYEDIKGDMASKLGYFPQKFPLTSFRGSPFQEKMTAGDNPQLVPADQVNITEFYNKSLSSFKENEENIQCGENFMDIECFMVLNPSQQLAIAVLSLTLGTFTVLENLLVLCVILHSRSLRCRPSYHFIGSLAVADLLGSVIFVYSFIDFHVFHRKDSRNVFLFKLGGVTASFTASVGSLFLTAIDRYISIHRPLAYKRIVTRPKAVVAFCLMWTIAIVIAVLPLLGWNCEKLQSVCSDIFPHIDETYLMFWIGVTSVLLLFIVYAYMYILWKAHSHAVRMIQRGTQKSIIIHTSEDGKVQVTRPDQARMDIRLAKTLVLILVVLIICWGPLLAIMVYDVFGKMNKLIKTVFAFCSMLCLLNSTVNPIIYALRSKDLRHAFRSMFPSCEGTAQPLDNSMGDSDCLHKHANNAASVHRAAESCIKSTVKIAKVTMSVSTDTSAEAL

In the case of CCCCCCOc1cc(C(C)(C)CCCCCC)cc2c1-c1c(cnn1CC)C(C)(C)O2 [compound 6, 7-(1,1-Dimethylheptyl)-1-ethyl-9-hexyloxy1,4-Dihydro-4,4-dimethylchromeno[4,3-c]pyrazole], the Ki [1] is reported as over 40 µM and the Ki [2] is reported as over 40 µM.

Compound CCCCCCOc1cc(C(C)(C)CCCCCC)cc2c1-c1nn(CC)cc1C(C)(C)O2 [compound 7, 7-(1,1-Dimethylheptyl)-2-ethyl-9-hexyloxy-2,4-dihydro-4,4-dimethylchromeno[4,3-c]pyrazole] has a Ki [1] of over 40 µM and a Ki [2] of over 40 µM.

With CCCCCCCCOc1cc(C(C)(C)CCCCCC)cc2c1-c1c(cnn1CC)C(C)(C)O2 [compound 8, 7-(1,1-Dimethylheptyl)-1-ethyl-1,4-dihydro-4,4-dimethyl-9-octyloxychromeno[4,3-c]pyrazole] the Ki [1] was over 40 µM and the Ki [2] was over 40 µM.

With CCCCCCCCOc1cc(C(C)(C)CCCCCC)cc2c1-c1nn(CC)cc1C(C)(C)O2 [compound 9, 7-(1,1-Dimethylheptyl)-2-ethyl-2,4-dihydro-4,4-dimethyl-9-octyloxychromeno[4,3-c]pyrazole] the Ki [1] was over 40 µM and the Ki [2] was over 40 µM.

With CCCCCCCCCCOc1cc(C(C)(C)CCCCCC)cc2c1-c1c(cnn1CC)C(C)(C)O2 [compound 10, 9-Decyloxy-7-(1,1-dimethylheptyl)-1-ethyl-1,4-dihydro-4,4-dimethylchromeno[4,3-c]pyrazole] the Ki [1] was over 40 µM and the Ki [2] was over 40 µM.

In the case of CCCCCCCCCCOc1cc(C(C)(C)CCCCCC)cc2c1-c1nn(CC)cc1C(C)(C)O2 [compound 11, 9-Decyloxy-7-(1,1-dimethylheptyl)-2-ethyl-2,4-dihydro-4,4-dimethylchromeno[4,3-c]pyrazole], the Ki [1] is reported as over 40 µM and the Ki [2] is reported as over 40 µM.

CCCCCCCCCCCCOc1cc(C(C)(C)CCCCCC)cc2c1-c1c(cnn1CC)C(C)(C)O2 [compound 12, 7-(1,1-Dimethylheptyl)-9-dodecyloxy-1-ethyl-1,4-dihydro-4,4-dimethylchromeno[4,3-c]pyrazole] gave a Ki [1] of over 40 µM and a Ki [2] of over 40 µM.

Work on CCCCCCCCCCCCOc1cc(C(C)(C)CCCCCC)cc2c1-c1nn(CC)cc1C(C)(C)O2 [compound 13, 7-(1,1-Dimethylheptyl)-9-dodecyloxy-2-ethyl-2,4-dihydro-4,4-dimethylchromeno[4,3-c]pyrazole] yielded a Ki [1] of over 40 µM and a Ki [2] of over 40 µM.

In the case of CCCCCCCCCCCCCCOc1cc(C(C)(C)CCCCCC)cc2c1-c1c(cnn1CC)C(C)(C)O2 [compound 14, 7-(1,1-Dimethylheptyl)-1-ethyl-1,4-dihydro-4,4-dimethyl-9-tetradecyloxychromeno[4,3-c]pyrazole], the Ki [1] is reported as over 40 µM and the Ki [2] is reported as over 40 µM.

In the case of CCCCCCCCCCCCCCOc1cc(C(C)(C)CCCCCC)cc2c1-c1nn(CC)cc1C(C)(C)O2 [compound 15, 15], the Ki [3] is reported as over 40 µM and the Ki [4] is reported as over 40 µM.

Compound CCCCCCCCCCCCCCCCOc1cc(C(C)(C)CCCCCC)cc2c1-c1c(cnn1CC)C(C)(C)O2 [compound 16, 7-(1,1-Dimethylheptyl)-1-ethyl-9-hexadecyloxy-1,4-dihydro-4,4-dimethylchromeno[4,3-c]pyrazole] has a Ki [1] of over 40 µM and a Ki [2] of over 40 µM.

Compound CCCCCCCCCCCCCCCCOc1cc(C(C)(C)CCCCCC)cc2c1-c1nn(CC)cc1C(C)(C)O2 [compound 17, 17] has a Ki [3] of over 40 µM and a Ki [4] of over 40 µM.

For CCCCCCC(C)(C)c1cc(OCCCCCCOc2cc(C(C)(C)CCCCCC)cc3c2-c2c(cnn2CC)C(C)(C)O3)c2c(c1)OC(C)(C)c1cnn(CC)c1-2 [compound 18, bivalent chromenopyrazole 18 (R1 = N1-Et, n = 4)], the Ki [5] was 28.1 ± 1.6 µM and the Ki [6] was over 40 µM.

Compound CCCCCCC(C)(C)c1cc(OCCCCCCOc2cc(C(C)(C)CCCCCC)cc3c2-c2nn(CC)cc2C(C)(C)O3)c2c(c1)OC(C)(C)c1cn(CC)nc1-2 [compound 19, bivalent chromenopyrazole 19 (R1 = N2-Et, n = 4)] has a Ki [5] of 12.4 ± 2 µM and a Ki [6] of over 40 µM.

CCCCCCC(C)(C)c1cc(OCCCCCCCCOc2cc(C(C)(C)CCCCCC)cc3c2-c2c(cnn2CC)C(C)(C)O3)c2c(c1)OC(C)(C)c1cnn(CC)c1-2 [compound 20, bivalent chromenopyrazole 20 (R1 = N1-Et, n = 6)] gave a Ki [5] of 2.2 ± 0.7 µM and a Ki [6] of over 40 µM.

CCCCCCC(C)(C)c1cc(OCCCCCCCCCCOc2cc(C(C)(C)CCCCCC)cc3c2-c2nn(CC)cc2C(C)(C)O3)c2c(c1)OC(C)(C)c1cn(CC)nc1-2 [compound 23, bivalent chromenopyrazole 23 (R1 = N2-Et, n = 8)] was tested, and the Ki [5] was 5.8 ± 1.5 µM and the Ki [6] was over 40 µM.

CCCCCCC(C)(C)c1cc(OCCCCCCCCCCCCOc2cc(C(C)(C)CCCCCC)cc3c2-c2c(cnn2CC)C(C)(C)O3)c2c(c1)OC(C)(C)c1cnn(CC)c1-2 [compound 24, bivalent chromenopyrazole 24 (R1 = N1-Et, n = 10)] gave an EC50 [7] of 0.0631 µM, a Ki [5] of 0.4 ± 0.14 µM and a Ki [6] of over 40 µM.

CCCCCCC(C)(C)c1cc(OCCCCCCCCCCCCOc2cc(C(C)(C)CCCCCC)cc3c2-c2nn(CC)cc2C(C)(C)O3)c2c(c1)OC(C)(C)c1cn(CC)nc1-2 [compound 25, bivalent chromenopyrazole 25 (R1 = N2-Et, n = 10)] gave an EC50 [7] of 0.0631 µM, a Ki [5] of 0.3 ± 0.1 µM and a Ki [6] of over 40 µM.

CCCCCCC(C)(C)c1cc(OCCCCCCCCCCCCCCOc2cc(C(C)(C)CCCCCC)cc3c2-c2c(cnn2CC)C(C)(C)O3)c2c(c1)OC(C)(C)c1cnn(CC)c1-2 [compound 26] showed an EC50 [7] of 0.316 µM, a Ki [5] of 0.8 ± 0.1 µM and a Ki [6] of over 40 µM.

For CCCCCCC(C)(C)c1cc(OCCCCCCCCCCCCCCCCOc2cc(C(C)(C)CCCCCC)cc3c2-c2nn(CC)cc2C(C)(C)O3)c2c(c1)OC(C)(C)c1cn(CC)nc1-2 [compound 29, bivalent chromenopyrazole 29 (R1 = N2-Et, n = 14)], the Ki [5] was 2.12 ± 0.21 µM and the Ki [6] was over 40 µM.
